The text below walks through data of patent US20260193244A1 (Protego Biopharma, Inc., priority 2022, published 2026).

SMILES strings stand for the structures. Where a name gives a salt, the structure may show the parent alone.

This test relates to IRE1-XBP1s (HEK293 T-REx cells stably expressing the XBP1-RLuc splicing reporter). Briefly: IRE1-XBP1s activation Assay (XBP1-RLuc splicing reporter, luminescence relative to thapsigargin, with or without IRE1 inhibitor 4μ8C). Type of test: cell-based. As to conditions: 18 h, compound 10 μM, luminescence as percentage signal relative to thapsigargin (Tg) (500 nM, 18 h). On the procedure:
IRE1-XBP1s activation Assay: HEK293 T-REx cells stably expressing the XBP1-RLuc splicing reporter were treated with an IRE1-XBP1s activator provided herein (10 μM) in the presence or absence of the IRE1 active site inhibitor 4μ8C (32 μM) for 18 h. Luminescence was shown as the percentage signal relative to thapsigargin (Tg) (500 nM, 18 h).
The compound `Cc1ccc(OCCN(C)C(=O)Cn2cc(NC(=O)C3CCN(c4ccccc4)C3)cn2)cc1` (centres unmarked) [Compound 64] had an activation at 10 µM below 30%.

In turn, `Cc1ccc(OC2COCCN(C(=O)Cn3cc(NC(=O)CCOc4ccccc4)cn3)C2)cc1` (centres unmarked) [Compound 65] yielded an activation at 10 µM of 30 to 50%. For `Cc1ccc(OCCN(C)C(=O)Cn2cc(NC(=O)C3CNc4ccccc4C3)cn2)cc1` (centres unmarked) [Compound 66] the value was below 30%; for `Cc1ccc(OCCN(C)C(=O)Cn2cc(NC(=O)C3COc4ccccc43)cn2)cc1` (centres unmarked) [Compound 67], below 30%; for `Cc1ccc(OC2(C)CCCN(C(=O)Cn3cc(NC(=O)CCOc4ccccc4F)cn3)C2)c(N)c1` (centres unmarked) [Compound 69, N-(1-(2-(3-(2-amino-4-methylphenoxy)-3-methylpiperidin-1-yl)-2-oxoethyl)-1H-pyrazol-4-yl)-3-(2-fluorophenoxy)propanamide], below 30%. For the compound `CN(C(=O)Cn1cc(NC(=O)CCOc2ccccc2)cn1)C12CCC(Oc3ccc(C(F)(F)F)cc3)(CC1)CC2` [Compound 70], the activation at 10 µM was at least 50%. Consider `Cc1ccc(O[C@H]2CCCN(C(=O)Cn3cc(NC(=O)CCOc4ccccc4F)cn3)C2)cc1` [Compound 71], for which the activation at 10 µM is at least 50%.

For `Cc1ccc(O[C@@H]2CCCN(C(=O)Cn3cc(NC(=O)CCOc4ccccc4F)cn3)C2)cc1` [Compound 72], the activation at 10 µM was at least 50%. Consider `Cc1ccc(OCCN(C)C(=O)Cn2cc(NC(=O)C3CN(C(=O)OC(C)(C)C)c4ccccc4O3)cn2)cc1` (centres unmarked) [Compound 73], for which the activation at 10 µM is below 30%. For `Cc1ccc(OC2CCCN(C(=O)Cn3cc(NC(=O)CCOc4ccccc4-c4ccccc4)cn3)C2)cc1` (centres unmarked) [Compound 74] the value was below 30%; for `Cc1ccc(OC2CCCN(C(=O)Cn3cc(NC(=O)CCOc4cncc(F)c4)cn3)C2)cc1` (centres unmarked) [Compound 75], below 30%; for `Cc1ccc(OC2(C)CCCN(C(=O)Cn3cc(NC(=O)CCOc4ccccc4F)cn3)C2)cc1` (centres unmarked) [Compound 77], 30 to 50%.

`CC1(Oc2ccc(Br)cc2)CCCN(C(=O)Cn2cc(NC(=O)CCOc3ccccc3F)cn2)C1` (centres unmarked) [Compound 78]: the activation at 10 µM is below 30%.

As for `Cc1ccc(OC2CCCN(C(=O)Cn3cc(NC(=O)CCOc4cc(Cl)ccc4F)cn3)C2)cc1` (centres unmarked) [Compound 80], the activation at 10 µM was at least 50%.

In turn, `Cc1ccc(OC2CCCN(C(=O)Cn3cc(NC(=O)CCOc4ccccc4C(F)(F)F)cn3)C2)cc1` (centres unmarked) [Compound 83] yielded an activation at 10 µM below 30%. `Cc1ccc(OCCN(C)C(=O)Cn2cc(NC(=O)CCN3CCOc4ccccc43)cn2)cc1` [Compound 85]: the activation at 10 µM is below 30%. Turning to `Cc1ccc(OC2CCCN(C(=O)Cn3cc(NC(=O)CCOc4c(F)cccc4F)cn3)C2)cc1` (centres unmarked) [Compound 86], the activation at 10 µM is 30 to 50%. Next, `Cc1ccc(OC2CCCN(C(=O)Cn3cc(NC(=O)CCOc4cncc(C(F)(F)F)c4)cn3)C2)cc1` (centres unmarked) [Compound 89]: below 30%; `Cc1ccc(OCCN(C)C(=O)Cn2cc(NC(=O)C3CNc4ncccc4O3)cn2)cc1` (centres unmarked) [Compound 90, N-(1-(2-(methyl(2-(p-tolyloxy)ethyl)amino)-2-oxoethyl)-1H-pyrazol-4-yl)-3,4-dihydro-2H-pyrido[3,2-b][1,4]oxazine-2-carboxamide hydrochloride]: 30 to 50%. For `Cc1ccc(OC2CCCN(C(=O)Cn3cc(NC(=O)CCOc4cccnc4C(F)(F)F)cn3)C2)cc1` (centres unmarked) [Compound 91], the activation at 10 µM is below 30%.

With `Cc1ccc(O[C@@H]2CCCN(C(=O)Cn3cc(NC(=O)CCOc4ccc(F)cc4C)cn3)C2)cc1` [Compound 93], the activation at 10 µM was at least 50%. The compound `Cc1ccc(O[C@H]2CCCN(C(=O)Cn3cc(NC(=O)CCOc4ccc(F)cc4C)cn3)C2)cc1` [Compound 94] gave an activation at 10 µM of 30 to 50%. Next, `Cc1ccc(OCCN(C)C(=O)Cn2cc(NC(=O)CC3CNc4cc(F)ccc4O3)cn2)cc1` (centres unmarked) [Compound 96, 2-(4-(2-(6-fluoro-3,4-dihydro-2H-benzo[b][1,4]oxazin-2-yl)acetamido)-1H-pyrazol-1-yl)-N-methyl-N-(2-(p-tolyloxy)ethyl)acetamide]: 30 to 50%.

For the compound `Cc1ccc(OCCN(C)C(=O)Cn2cc(NC(=O)CC3CN(C(=O)OC(C)(C)C)c4cc(F)ccc4O3)cn2)cc1` (centres unmarked) [Compound 97], the activation at 10 µM is at least 50%.

Take `Cc1ccc(OC2CCCN(C(=O)Cn3cc(NC(=O)CCOc4ccc(F)cc4C)cn3)C2)cc1` (centres unmarked) [Compound 98]: the activation at 10 µM was at least 50%. Take `Cc1ccc(OC2CCCN(C(=O)Cn3cc(NC(=O)CCC4(c5ccccc5F)CC4)cn3)C2)cc1` (centres unmarked) [Compound 100, 3-(1-(2-fluorophenyl)cyclopropyl)-N-(1-(2-oxo-2-(3-(p-tolyloxy)piperidin-1-yl)ethyl)-1H-pyrazol-4-yl)propanamide]: the activation at 10 µM is below 30%.

`Cc1ccc(OCCN(C)C(=O)Cn2cc(NC(=O)C3CCCC(Oc4ccncc4)C3)cn2)cc1` (centres unmarked) [Compound 101] returned an activation at 10 µM below 30%. The compound `Cc1ccc(OCCN(C)C(=O)Cn2cc(NC(=O)C3CCC(Oc4ccncc4)CC3)cn2)cc1` (centres unmarked) [Compound 102] came in with an activation at 10 µM of at least 50%. Consider `Cc1ccc(OCCN(C)C(=O)Cn2cc(NC(=O)C3CCC(Oc4cccnc4)CC3)cn2)cc1` (centres unmarked) [Compound 103], for which the activation at 10 µM was below 30%.

`Cc1ccc(OCCN(C)C(=O)Cn2cc(NC(=O)C3CCC(Oc4ccncc4)C3)cn2)cc1` (centres unmarked) [Compound 104] displayed an activation at 10 µM of at least 50%.

Regarding `Cc1ccc(O[C@H]2CCCN(C(=O)Cn3cc(NC(=O)C4CC(Oc5ccccn5)C4)cn3)C2)cc1` (some centres unmarked) [Compound 105], the activation at 10 µM fell in the range of 30 to 50%.

With `Cc1ccc(O[C@H]2CCCN(C(=O)Cn3cc(NC(=O)[C@H]4C[C@H](Oc5ccccn5)C4)cn3)C2)cc1` [Compound 106], the activation at 10 µM is at least 50%.

In the case of `Cc1ccc(O[C@H]2CCCN(C(=O)Cn3cc(NC(=O)C4CC(Oc5cccnc5N)C4)cn3)C2)cc1` (some centres unmarked) [Compound 107], the activation at 10 µM is 30 to 50%.

Consider `O=C(Nc1cnn(CC(=O)N2CCC[C@H](Oc3ccc(C(F)(F)F)cn3)C2)c1)C1CC(Oc2ccncc2)C1` (some centres unmarked) [Compound 108], for which the activation at 10 µM is below 30%.

In turn, `O=C(Cn1cc(NC(=O)[C@H]2C[C@H](Oc3ccccc3)C2)cn1)N1CCC[C@H](Oc2ccc(C(F)(F)F)cn2)C1` [Compound 109] yielded an activation at 10 µM below 30%. `Cc1ccc(OCCN(C)C(=O)Cn2cc(NC(=O)CC3CCc4cc(F)ccc4O3)cn2)cc1` (centres unmarked) [Compound 110] registered an activation at 10 µM below 30%. Turning to `Cc1ccc(OCCN(C)C(=O)Cn2cc(NC(=O)c3cnccc3NC(=O)OC(C)(C)C)cn2)cc1` [Compound 111], the activation at 10 µM is at least 50%.

For `Cc1ccc(OCCN(C)C(=O)Cn2cc(NC(=O)c3cnccc3N)cn2)cc1` [Compound 112], the activation at 10 µM is below 30%. For `COc1ccc(N(C)C(=O)Cn2cc(NC(=O)CCOc3ccccc3)cn2)cc1` [Compound 113], the activation at 10 µM was below 30%. As for `O=C(CCOc1ccccc1)Nc1cnn(CC(=O)Nc2ccc(OC(F)F)cc2)c1` [Compound 114], the activation at 10 µM lay in the range of 30 to 50%. For `Cc1ccc(C(=O)c2ccc(N(C)C(=O)Cn3cc(NC(=O)CCOc4ccccc4)cn3)cn2)cc1` [Compound 115] the value was below 30%; for `Cc1ccc(Oc2cccc(N(C)C(=O)Cn3cc(NC(=O)CCOc4ccccc4)cn3)c2)cc1` [Compound 116], below 30%; for `Cc1ccc(OC2CCCCN(C(=O)Cn3cc(NC(=O)CCOc4ccccc4)cn3)C2)cc1` (centres unmarked) [Compound 117], at least 50%. For `Cc1ccc(Oc2ccc(N(C)C(=O)Cn3cc(NC(=O)CCOc4ccccc4)cn3)cc2)cc1` [Compound 118] the value was below 30%. In the case of `CN(C(=O)Cn1cc(NC(=O)CCOc2ccccc2)cn1)c1ccc(OC2CCC(C)(C)CC2)c(F)c1` [Compound 119], the activation at 10 µM is below 30%. `Cc1ccc(O[C@H]2CCCN(C(=O)Cn3cc(NC(=O)C4CNc5ccccc5O4)cn3)C2)cc1` (some centres unmarked) [Compound 120] returned an activation at 10 µM below 30%. `Cc1ccc(O[C@H]2CCCN(C(=O)Cn3cc(NC(=O)C4CN(C(=O)OC(C)(C)C)c5ccccc5O4)cn3)C2)cc1` (some centres unmarked) [Compound 121] yielded an activation at 10 µM below 30%. As to `Cc1ccc(O[C@H]2CCCN(C(=O)Cn3cc(NC(=O)[C@H]4CNc5ccccc5O4)cn3)C2)cc1` [Compound 122], the activation at 10 µM was below 30%. The compound `Cc1ccc(O[C@H]2CCCN(C(=O)Cn3cc(NC(=O)[C@@H]4CNc5ccccc5O4)cn3)C2)cc1` [Compound 123] had an activation at 10 µM below 30%. `Cc1ccc(OCCN(C)C(=O)Cn2cc(NC(=O)C3Oc4cccc(C(C)C)c4O3)cn2)cc1` (centres unmarked) [Compound 124] showed an activation at 10 µM below 30%. Consider `Cc1ccc(OCCN(C)C(=O)Cn2cc(NC(=O)C3COc4cccc(C)c4O3)cn2)cc1` (centres unmarked) [Compound 125], for which the activation at 10 µM lay in the range of 30 to 50%. Compound `Cc1ccc(OCCN(C)C(=O)Cn2cc(NC(=O)C3COc4cccc(C(C)C)c4O3)cn2)cc1` (centres unmarked) [Compound 126] displayed an activation at 10 µM below 30%. Turning to `Cc1ccc(OCCN(C)C(=O)Cn2cc(NC(=O)C3CNc4cccc(F)c4O3)cn2)cc1` (centres unmarked) [Compound 127], the activation at 10 µM was 30 to 50%.

Take `Cc1ccc(OCCN(C)C(=O)Cn2cc(NC(=O)C3Oc4ccccc4O3)cn2)cc1` [Compound 128]: the activation at 10 µM was below 30%. In turn, `Cc1ccc(OCCN(C)C(=O)Cn2cc(NC(=O)C3COc4c(F)cccc4O3)cn2)cc1` (centres unmarked) [Compound 129] yielded an activation at 10 µM of at least 50%.

On to `Cc1ccc(OCCN(C)C(=O)Cn2cc(NC(=O)OC3CCCN(c4ccnc(F)n4)C3)cn2)cc1` (centres unmarked) [Compound 130, 1-(2-fluoropyrimidin-4-yl)piperidin-3-yl (1-(2-(methyl (2-(p-tolyl-oxy)ethyl)amino)-2-oxoethyl)-1H-pyrazol-4-yl)carbamate], for which the activation at 10 µM was below 30%.
